Measurements reported in ChEMBL document CHEMBL1149399, “Dual inhibitors of thymidylate synthase and dihydrofolate reductase as antitumor agents: design, synthesis, and biological evaluation of classical and nonclassical pyrrolo[2,3-d]pyrimidine antifolates(1)” (J Med Chem, 2006).
Blank lines part the entries; values can stand above or below the molecule they belong to.

Experiments:
CCRF-CEM [1] = assay: Protection against growth of CCRF-CEM cells in presence of 5 uM Thymidine, 10 uM Deoxycytidine and 10 uM Hypoxanthine, relative to control; type: functional, Homo sapiens
CCRF-CEM [2] = assay: Protection against growth inhibition of CCRF-CEM cells in presence of 0.1 uM of Leucovorin at concentrations that inhibited the growth by […]%; type: functional, Homo sapiens; parameters: scale not given: the % may be the effect or the level left
CCRF-CEM [3] = assay: Protection against growth of CCRF-CEM cells in presence of 5 uM Thymidine and 10 uM Deoxycytidine, relative to control; type: functional, Homo sapiens
CCRF-CEM [4] = assay: Protection against growth of CCRF-CEM cells in presence of 10 uM Deoxycytidine, relative to control; type: functional, Homo sapiens
CCRF-CEM [5] = assay: Protection against growth of CCRF-CEM cells in presence of 10 uM Hypoxanthine and 10 uM Deoxycytidine, relative to control; type: functional, Homo sapiens
R2-CCRF-CEM = assay: Inhibition of growth in MTX-resistant CCRF-CEM cell line, R2 cells; type: functional, cell-based; settings: Homo sapiens
CCRF-CEM [6] = assay: Protection against growth of CCRF-CEM cells in presence of 10 uM Hypoxanthine, relative to control; type: functional, Homo sapiens
CCRF-CEM [7] = assay: Protection against growth of CCRF-CEM cells in presence of 5 uM Thymidine, relative to control; type: functional, Homo sapiens
R1-CCRF-CEM = assay: Inhibition of growth in MTX-resistant CCRF-CEM cell line, R1 cells; type: functional, cell-based; settings: Homo sapiens
[8] = target: Thymidylate synthase (Escherichia coli) (UniProt C3SWJ7); assay: Inhibition of TS from Escherichia coli at >2.3*10-5 nM
Chain of Thymidylate synthase (Escherichia coli) (C3SWJ7 1-264): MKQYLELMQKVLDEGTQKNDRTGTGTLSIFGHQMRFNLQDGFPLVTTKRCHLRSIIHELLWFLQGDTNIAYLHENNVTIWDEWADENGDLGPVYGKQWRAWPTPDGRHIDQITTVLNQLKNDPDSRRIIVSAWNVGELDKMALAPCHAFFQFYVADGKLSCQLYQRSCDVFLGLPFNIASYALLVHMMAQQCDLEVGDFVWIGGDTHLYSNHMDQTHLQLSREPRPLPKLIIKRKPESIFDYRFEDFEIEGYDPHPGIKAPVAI

[9] = target: T1, Dihydrofolate reductase (Homo sapiens) (UniProt P00374); assay: Inhibition of recombinant human DHFR at >31 uM
T1 sequence (whole entry): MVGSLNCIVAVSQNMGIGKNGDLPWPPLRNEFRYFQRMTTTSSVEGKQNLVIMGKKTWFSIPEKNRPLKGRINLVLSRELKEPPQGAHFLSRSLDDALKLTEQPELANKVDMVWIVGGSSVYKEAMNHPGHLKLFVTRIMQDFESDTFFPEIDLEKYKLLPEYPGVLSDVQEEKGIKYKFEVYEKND

[10] = target: Thymidylate synthase (Escherichia coli) (UniProt C3SWJ7); assay: Inhibition of TS from Escherichia coli at >2.6*10-5 nM
[11] = target: T1, Dihydrofolate reductase (Homo sapiens); assay: Inhibition of recombinant human DHFR at >32 uM
Thymidylate synthase [12] = target: T2, Thymidylate synthase (Homo sapiens, UniProt P04818)
Target sequence in this assay (P04818 whole entry): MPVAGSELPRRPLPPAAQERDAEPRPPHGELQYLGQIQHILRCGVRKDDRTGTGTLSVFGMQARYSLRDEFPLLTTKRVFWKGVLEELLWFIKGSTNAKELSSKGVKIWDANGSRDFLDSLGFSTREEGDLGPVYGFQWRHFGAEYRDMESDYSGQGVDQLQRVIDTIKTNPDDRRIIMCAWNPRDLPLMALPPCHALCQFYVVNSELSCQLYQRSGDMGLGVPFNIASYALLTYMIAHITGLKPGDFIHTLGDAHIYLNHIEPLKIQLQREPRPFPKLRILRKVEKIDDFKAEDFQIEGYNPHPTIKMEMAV

[13] = target: Thymidylate synthase (Escherichia coli) (UniProt C3SWJ7); assay: Inhibition of TS from Escherichia coli at >2.7*10-5 nM
[14] = target: T1, Dihydrofolate reductase (Homo sapiens); assay: Inhibition of recombinant human DHFR at >26 uM
[15] = target: Thymidylate synthase (Escherichia coli) (UniProt C3SWJ7); assay: Inhibition of TS from Escherichia coli at >2.2*10-5 nM
[16] = target: Thymidylate synthase (Escherichia coli) (UniProt C3SWJ7); assay: Inhibition of TS from Escherichia coli at >3.2*10-5 nM
Thymidylate synthase [17] = target: T2, Thymidylate synthase; assay: Inhibition of recombinant human TS at >3.2*10-5 nM
Target sequence in this assay (P04818 2-313 limits assumed): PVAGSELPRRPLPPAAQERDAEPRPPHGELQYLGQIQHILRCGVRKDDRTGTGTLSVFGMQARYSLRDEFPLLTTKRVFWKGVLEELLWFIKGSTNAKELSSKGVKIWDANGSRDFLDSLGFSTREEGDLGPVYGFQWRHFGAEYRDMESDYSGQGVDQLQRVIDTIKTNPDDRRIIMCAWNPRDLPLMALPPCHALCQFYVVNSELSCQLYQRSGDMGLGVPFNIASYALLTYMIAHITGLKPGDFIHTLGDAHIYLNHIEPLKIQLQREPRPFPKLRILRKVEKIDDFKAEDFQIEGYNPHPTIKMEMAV

CCRF-CEM [18] = assay: Protection against growth inhibition of CCRF-CEM cells in presence of 10 uM of Leucovorin at concentrations that inhibited the growth by 95%; type: functional, Homo sapiens; parameters: scale not given: the % may be the effect or the level left
CCRF-CEM [19] = assay: Inhibition of growth in CCRF-CEM cells; type: functional, cell-based; settings: Homo sapiens
Thymidylate synthase [20] = target: Thymidylate synthase (Escherichia coli, UniProt C3SWJ7); assay: Inhibition of TS from Escherichia coli
Chain of Thymidylate synthase (Escherichia coli, UniProt C3SWJ7) (C3SWJ7 whole entry): as the sequence (C3SWJ7 1-264) above

Dihydrofolate reductase = target: T3, Dihydrofolate reductase (Homo sapiens, UniProt P00374)
T3 sequence (P00374 whole entry): T1 sequence (whole entry)

CCRF-CEM [21] = assay: Inhibition of growth in MTX-resistant CCRF-CEM cell line, R30dm cells; type: functional, cell-based; settings: Homo sapiens
[22] = Inhibition of DHFR from Escherichia coli
[23] = target: Thymidylate synthase (Escherichia coli) (UniProt C3SWJ7); assay: Inhibition of TS from Escherichia coli at >2.0*10-5 nM
Thymidylate synthase [24] = target: T2, Thymidylate synthase; assay: Inhibition of recombinant human TS at >2.2*10-5 nM
Target sequence in this assay (P04818 2-313 limits assumed): as the sequence (P04818 2-313 limits assumed) above

[25] = target: Thymidylate synthase (Escherichia coli) (UniProt C3SWJ7); assay: Inhibition of TS from Escherichia coli at >3.0*10-5 nM
[26] = target: T1, Dihydrofolate reductase (Homo sapiens); assay: Inhibition of recombinant human DHFR at >29 uM
Thymidylate synthase [27] = target: T2, Thymidylate synthase; assay: Inhibition of recombinant human TS at >3.1*10-5 nM
Target sequence in this assay (P04818 2-313 limits assumed): as above

[28] = target: Thymidylate synthase (Escherichia coli) (UniProt C3SWJ7); assay: Inhibition of TS from Escherichia coli at >3.1*10-5 nM
[29] = substrate: CCc1[nH]c2nc(N)nc(O)c2c1Sc1ccc(C(=O)N[C@@H](CCC(=O)O)C(=O)O)cc1; assay: Binding with human cytosolic FPGS at <= 100 uM

Molecule: CCc1[nH]c2nc(N)nc(O)c2c1Sc1ccc(F)cc1
inhibition [11]: 0%
IC50 (Thymidylate synthase [12]): 2.7 µM
inhibition [13]: 0%

Molecule: CCc1[nH]c2nc(N)[nH]c(=O)c2c1Sc1cccc2ccccc12
IC50 (Thymidylate synthase [12]): 5.6 µM

Molecule: CCc1[nH]c2nc(N)nc(O)c2c1Sc1ccc2ccccc2c1
IC50 (Thymidylate synthase [12]): 5.6 µM

Molecule: CCc1[nH]c2nc(N)nc(O)c2c1Sc1cccc(Br)c1
inhibition [8]: 10%
IC50 (Thymidylate synthase [12]): 1.1 µM

Molecule: CCc1[nH]c2nc(N)nc(O)c2c1Sc1ccc(C(=O)N[C@@H](CCC(=O)O)C(=O)O)cc1
Activity (CCRF-CEM [18]): 75%
EC50 (CCRF-CEM [19]): 2.7 µM
Activity (CCRF-CEM [1]): 105%
Activity (CCRF-CEM [2]): 95%
IC50 (Thymidylate synthase [20]): 0.54 µM
Activity (CCRF-CEM [3]): 106%
Activity (CCRF-CEM [4]): 18%
Activity (CCRF-CEM [5]): 16%
EC50 (R2-CCRF-CEM): 12.5 µM
Activity (CCRF-CEM [6]): 16%
IC50 (Dihydrofolate reductase): 0.42 µM
EC50 (CCRF-CEM [21]): 2.9 µM
IC50 (Thymidylate synthase [12]): 0.09 µM
IC50 [22]: > 21 µM
Activity (CCRF-CEM [7]): 106%
EC50 (R1-CCRF-CEM): 7.05 µM

Molecule: CCc1[nH]c2nc(N)nc(O)c2c1Sc1cc(C(F)(F)F)cc(C(F)(F)F)c1
inhibition [23]: 0%
inhibition (Thymidylate synthase [24]): 18%

Molecule: CCc1[nH]c2nc(N)nc(O)c2c1Sc1cccc(Cl)c1
inhibition [9]: 0%
inhibition [10]: 13%
IC50 (Thymidylate synthase [12]): 2.6 µM

B1: Folylpolyglutamate synthase, mitochondrial (Homo sapiens), Q05932 (protein)
chain: MSRARSHLRAALFLAAASARGITTQVAARRGLSAWPVPQEPSMEYQDAVRMLNTLQTNAGYLEQVKRQRGDPQTQLEAMELYLARSGLQVEDLDRLNIIHVTGTKGKGSTCAFTECILRSYGLKTGFFSSPHLVQVRERIRINGQPISPELFTKYFWRLYHRLEETKDGSCVSMPPYFRFLTLMAFHVFLQEKVDLAVVEVGIGGAYDCTNIIRKPVVCGVSSLGIDHTSLLGDTVEKIAWQKGGIFKQGVPAFTVLQPEGPLAVLRDRAQQISCPLYLCPMLEALEEGGPPLTLGLEGEHQRSNAALALQLAHCWLQRQDRHGAGEPKASRPGLLWQLPLAPVFQPTSHMRLGLRNTEWPGRTQVLRRGPLTWYLDGAHTASSAQACVRWFRQALQGRERPSGGPEVRVLLFNATGDRDPAALLKLLQPCQFDYAVFCPNLTEVSSTGNADQQNFTVTLDQVLLRCLEHQQHWNHLDEEQASPDLWSAPSPEPGGSASLLLAPHPPHTCSASSLVFSCISHALQWISQGRDPIFQPPSPPKGLLTHPVAHSGASILREAAAIHVLVTGSLHLVGGVLKLLEPALSQ
Km [29]: Not Active

The next lines start with results.

EC50 (R2-CCRF-CEM): 1.7 µM
EC50 (R1-CCRF-CEM): 0.565 µM
Molecule: CN(Cc1cnc2nc(N)nc(N)c2n1)c1ccc(C(=O)N[C@@H](CCC(=O)O)C(=O)O)cc1 [METHOTREXATE]
Activity (CCRF-CEM [1]): 99%
Activity (CCRF-CEM [2]): 10%
Activity (CCRF-CEM [3]): 10%
Activity (CCRF-CEM [4]): 10%
Activity (CCRF-CEM [5]): 11%
Activity (CCRF-CEM [6]): 101%
Activity (CCRF-CEM [7]): 44%

inhibition [8]: 41%
Molecule: CCc1[nH]c2nc(N)nc(O)c2c1Sc1ccc(Cl)c(Cl)c1

inhibition [9]: 0%
inhibition [10]: 0%
Molecule: CCc1[nH]c2nc(N)nc(O)c2c1Sc1c(C)cccc1C

IC50 (Thymidylate synthase [12]): 26 µM
Molecule: CCc1[nH]c2nc(N)[nH]c(=O)c2c1Sc1c(C)cccc1C

inhibition [14]: 14%
inhibition [15]: 15%
IC50 (Thymidylate synthase [12]): 1 µM
Molecule: CCc1[nH]c2nc(N)nc(O)c2c1Sc1ccc(Br)cc1

inhibition [16]: 5%
inhibition (Thymidylate synthase [17]): 15%
Molecule: CCc1[nH]c2nc(N)nc(O)c2c1Sc1cccc(OC)c1

inhibition [16]: 22%
IC50 (Thymidylate synthase [12]): 16 µM
Molecule: CCc1[nH]c2nc(N)nc(O)c2c1Sc1ccc(OC)cc1

inhibition [25]: 15%
Molecule: CCc1[nH]c2nc(N)nc(O)c2c1Sc1cccc2ccccc12

IC50 (Thymidylate synthase [12]): 0.23 µM
Molecule: CCc1[nH]c2nc(N)[nH]c(=O)c2c1Sc1ccc(Cl)c(Cl)c1

EC50 (CCRF-CEM [19]): 0.45 µM
EC50 (CCRF-CEM [21]): 0.81 µM
IC50 [22]: 21 µM
Molecule: Cc1[nH]c2nc(N)[nH]c(=O)c2c1Sc1ccc(C(=O)N[C@@H](CCC(=O)O)C(=O)O)cc1

IC50 (Thymidylate synthase [20]): 24 µM
inhibition [26]: 33%
IC50 (Thymidylate synthase [12]): 0.24 µM
Molecule: CCc1[nH]c2nc(N)nc(O)c2c1Sc1ccc([N+](=O)[O-])cc1

inhibition (Thymidylate synthase [27]): 25%
inhibition [28]: 27%
Molecule: CCc1[nH]c2nc(N)nc(O)c2c1Sc1ccc(Cl)cc1
